According to patent publication US7910624B1, “Compositions for the treatment of blood disorders” (The Trustees of Boston University, priority 1995, dated 2011):

How the values were obtained:
[1] = test system: Human erythroleukemia cells; assay: Fetal globin mRNA in erythroleukemia cells by primer extension; assay type: cell-based; details: 1.0 mM, 4 days
Protocol: Compounds were tested for increased expression of the human globin genes in human erythroid cells. In addition, as the cell line being tested is a tumor cell line, the assay determines if differentiation, a growth inhibitory effect on cancer cells, is induced by the compounds tested. Human erythroleukemia cells were cultured in RPMI media with 10% fetal calf serum alone or with treatment with various compounds for 4 days. Globin mRNA was quantitated by primer extension analysis. Fetal globin mRNA was compared to the amount of fetal globin mRNA produced in untreated cells during the same culture period. The quantitation was expressed as a percent of alpha globin mRNA which was constant. Results are expressed proportional to α-globin mRNA (Table 3).

[2] = test system: human erythroid cell line K562; assay: Cell viability / growth of K562 by Calcein-AM fluorescence; assay type: cell-based; details: over 3 days
Protocol: Such activities might limit their utility for treatment of anemias such as occur in thalassemia, but alternatively would be useful for anticancer effects. To determine cell viability, human erythroid cells were cultured in the presence and absence of these compounds for 4 days and the amount of DNA fragmentation which occurred was measured.
(§1) Cell viability analyses were performed using fluorescent staining to detect living cells. Cells were in log phase of growth in 6-well dishes when used in proliferation assays. For enumeration of living cells, wells were washed once with medium to remove nonadherent or dead cells. Remaining live cells were labeled with Calcein-AM for 20 minutes at 37° C. and washed once. Fluorescence intensity of adherent live cells was read on a CytoFluor 2300 Fluorescence Plate Scanner (Millipore; Bedford, Mass.) at excitation and emission wavelengths of 485 and 530 nm, respectively. The fluorescence intensity of a well was proportional to the number of living cells in the well. Background fluorescence was measured separately for each plate and subtracted from all readings. Each experiment was performed in triplicate or quadruplicate. The standard deviation (SD) of repetitive readings was less than 30% of the mean.
At higher concentrations, still easily achievable in vivo, arginine butyrate (0.5 mM) and dihydrocinnamic acid (greater than 0.5 mM) inhibited growth of this tumor cell line by approximately 50%. Therefore, these compounds are also useful as anti-tumor agents.

[3] = test system: system A transport in K562 cells and nucleated erythroblasts from fetal liver; assay: System A (neutral amino acid) transport, 3H-MAIB uptake; assay type: cell-based, human; details: 1 hour incubation, FIG. 12
Protocol: Inhibition of nutrient uptake is undesirable for treatment of anemias. Methyl aminoisobutyric acid (MAIB) labeled with tritium (^3H) is normally taken up by system A amino acid transport. Cold (unlabeled) compounds were added to cultures containing ^3H-MAIB and incubated for 1 hour. Cells were harvested and the amount of ^3H taken up by cells was quantitated by scintillation counting.

[4] = test system: erythroid cells (peripheral blood cells); assay: Erythroid cell viability by Calcein-AM fluorescent staining (FIG. 2); assay type: cell-based
Protocol: as §1, with “Compositions were tested for the ability to directly stimulate erythroid cell growth. Cell growth stimulation is a useful property for an agent to be used to treat anemias and distinguishes such agents from the cytotoxic drugs currently being tested for treatment of hemoglobinopathies. Cell viability” for “Cell viability”, “labeled with 2 μM 2′,7′-bis-(carboxyethyl)-5-(and 6)-carboxy-fluorescein acetoxy-methyl ester (Calcein-AM) (Molecular Probes; Eugene, Oreg.) for 20” for “labeled with Calcein-AM for 20”, “intensity of live cells” for “intensity of adherent live cells”, “the mean. Results are depicted in FIG. 2.” for “the mean.”

anemic juvenile baboons = assay: In vivo reticulocyte proliferation and globin expression in phlebotomized anemic baboons; parameters: species or system baboon
Method in brief: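 Juvenile female baboons, phlebotomized daily to hemoglobin 7.0-7.5 g/dl, received compounds sequentially with washout to baseline reticulocytes, each animal its own control. HbF-positive reticulocytes were counted by dual-antibody FACS. γ/(γ+β) globin synthesis ratio came from ^3H-leucine labeling and chromatographic chain separation, unadjusted for phlebotomy.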

K562 cells = assay: Dose response, total and viable cells by trypan blue exclusion (FIG. 3); assay type: cell-based, human; details: day 4
Protocol: FIG. 3 A FIG. 3E Cell viability as determined by the comparative numbers of total and viable K562 cells in the presence of increasing concentrations of (A) phenoxyacetic acid, (B) dihydrocinnamic acid, (C) butyric acid ethyl ester, (D) arginine butyrate, and (E) isobutyramide.
Dose response curves at dosages of up to 2.0 mM were also determined for phenoxyacetic acid (PAA; FIG. 3A), dihydrocinnamic acid (DHC; FIG. 3B), butyric acid ethyl ester (BAEE; FIG. 3C), arginine butyrate (AB; FIG. 3D) and isobutyramide (IBT; FIG. 3E). Cells were counted on day 4 of treatment and viable cells identified by trypan blue exclusion.

[5] = 1,000 to 1,500 mg/kg/day, 4 days

CCCC(=O)O [AB, arginine butyrate]
induction of fetal globin mRNA in human cells [1]: significantly increased | growth of K562 ([2]; 0.2 mM): either did not inhibit, or slightly enhanced growth | system A transport of amino acids (3H-MAIB uptake) [3]: inhibited the neutral amino acid transport mechanism | erythroid cell growth and proliferation compared to untreated controls (FIG. 2) ([4]; 0.2 mM): inhibited proliferation | erythroid cell growth and proliferation compared to untreated controls (FIG. 2) ([4]; 0.5 mM): inhibited proliferation | response of the same monkey (anemic juvenile baboons; 1,000 mg/kg for 5 days or 2,000 mg/kg for 3 days): had not responded | cell growth (dose response, FIG. 3) (K562 cells; concentrations above 0.2 mM): suppressed cell growth

O=C(O)COc1ccccc1 [PAA, Phenoxyacetic acid]
induction of fetal globin mRNA in human cells [1]: significantly increased | Gamma/Alpha (fetal globin mRNA proportional to α-globin mRNA) ([1]; untreated 0.46): 0.70 | Gamma Globin mRNA (increase ↑) ([1]; versus untreated): 24% ↑ | growth of K562 ([2]; 0.5 mM): either did not inhibit, or slightly enhanced growth | system A transport of amino acids (3H-MAIB uptake) ([3]; listed as phenoxy acetic acid): caused no significant inhibition and actually increased uptake of nutrients into cells | system A transport of amino acids (3H-MAIB uptake) ([3]; listed as phenoxyacetic acid): do not significantly alter | erythroid cell growth and proliferation compared to untreated controls (FIG. 2) ([4]; 0.5 mM): either had no effect or stimulated erythroid cell growth and proliferation | time the effect maintained itself after drug was discontinued (anemic juvenile baboons; 1,500 mg/kg each day, 5 days): two days | reticulocytes after treatment (anemic juvenile baboons; 1,500 mg/kg each day, 5 days, from 1.9%): 9.2 % of all red blood cells | white blood cell count after treatment (anemic juvenile baboons; 1,500 mg/kg each day, 5 days, from 6.9): 9.5 ×10^3 cells/μl | packed red blood cell volume after treatment (anemic juvenile baboons; 1,500 mg/kg each day, 5 days, from 22%): 25.4% | fetal reticulocytes, fold above baseline (anemic juvenile baboons; [5]): eight-fold | fetal reticulocytes, percent above baseline (anemic juvenile baboons; [5]): 800% | increase in output of fetal globin production over basal levels (anemic juvenile baboons; [5]): 4,000% | fetal globin protein synthesis after treatment (anemic juvenile baboons; 1,000 to 1,500 mg/kg/day, 4 days, from 0%): 5% | fetal reticulocytes after treatment (anemic juvenile baboons; another juvenile baboon, intravenous 1,000 to 1,500 mg/kg/day, 4 days, from 2%): 16% | total hemoglobin after treatment (anemic juvenile baboons; infused 1,500 mg/kg each day, 5 days (FIG. 7), from 6.8): 7.6 grams/dl | proportion of fetal reticulocytes on treatment (anemic juvenile baboons; infused 5 days, 500, 1,000 and 1,500 mg/kg (8 hours each), after 3 days (FIG. 9), from 12%): 27% | proliferation (dose response, FIG. 3) (K562 cells; up to 2.0 mM): did not significantly inhibit proliferation
